For twelve compounds, IC50, EC50 and AC50 results are on record in ChEMBL document CHEMBL1201862, “PubChem BioAssay data set” (2004).

Assay [1] is described as follows: cytotoxicity toward HCT116 cells – cell-based, CellTiter-Glo luminescence, IC50, dose response (AID 1117332). It is filed as functional. The note with it: HCT-116.
Assay [2] is described as follows: cytotoxicity toward Colo320 cells – cell-based, CellTiter-Glo luminescence, IC50, dose response (AID 1117334). It is filed as functional. The note with it: COLO 320.
The nature of assay [3]: cytotoxicity toward HT-29 cells – cell-based, CellTiter-Glo luminescence, IC50, dose response (AID 1117330). It is filed as functional.
A short description of assay [4]: SNU-C1 cell viability reduction, dose response, CellTiter-Glo luminescence (AID 1117323). It is filed as functional, cell-based.
Assay [5] can be described thus: Reduced DLD-1 viability, concentration-response, CellTiter-Glo luminescence (AID 1117352). The assay is classed as functional.
The nature of assay [6]: CellTiter-Glo luminescence survival assay, SW480 colon tumor line, concentration-response curve, half-maximal inhibitory concentration (AID 1117338). It is filed as functional.
The nature of assay [7]: RKO cell viability reduction, dose response, CellTiter-Glo luminescence (AID 1117322). The assay is classed as functional.
In a further assay the target is Kallikrein-7 (Homo sapiens, UniProt P49862). Kind of assay: Fluorescence Intensity-based biochemical primary high throughput dose response assay to identify activators of kallikrein-7 (K7) zymogen.
Assay [8] in a line: P. falciparum Dd2 growth inhibitors, dose response, SYBR Green, cherry-picked samples (AID 1159567). The assay is classed as functional, cell-based.
Assay [9] can be described thus: toxicity to human hepatoma HepG2 cells – cell-based, cherry-picked samples, cytotoxicity control, dose response (AID 1159577). It is filed as functional.
A short description of assay [10]: A2780 cell killing – plate reader, dry powder samples, cytotoxicity control, dose response (AID 743046). It is filed as functional, cell-based.
The target of a further assay is Paired box protein Pax-8 (Homo sapiens, UniProt Q06710). Kind of assay: PAX8 transcriptional activity inhibition in RMG-I – RMG-I cells, luciferase, cherry-pick, dose response (AID 687027).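 Further: luciferase reporter driven by Pax8 target thyroperoxidase promoter measured by SteadyGlo luminescence.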 It is filed as functional, cell-based.
For assay [11], the target named is T1, Oxysterols receptor LXR-beta (Homo sapiens, UniProt P55055).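 Further: Cell-based luminescence dose-response assay of agonist activity at LXR, run as a confirmatory counterscreen to a daf-12 agonist screen; HEK293 cells with Gal4-LXR fusion and GAL4-driven luciferase reporter; agonist potency from rising luciferase signal of a Gal4-LXR reporter.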
T1 sequence (P55055 whole entry): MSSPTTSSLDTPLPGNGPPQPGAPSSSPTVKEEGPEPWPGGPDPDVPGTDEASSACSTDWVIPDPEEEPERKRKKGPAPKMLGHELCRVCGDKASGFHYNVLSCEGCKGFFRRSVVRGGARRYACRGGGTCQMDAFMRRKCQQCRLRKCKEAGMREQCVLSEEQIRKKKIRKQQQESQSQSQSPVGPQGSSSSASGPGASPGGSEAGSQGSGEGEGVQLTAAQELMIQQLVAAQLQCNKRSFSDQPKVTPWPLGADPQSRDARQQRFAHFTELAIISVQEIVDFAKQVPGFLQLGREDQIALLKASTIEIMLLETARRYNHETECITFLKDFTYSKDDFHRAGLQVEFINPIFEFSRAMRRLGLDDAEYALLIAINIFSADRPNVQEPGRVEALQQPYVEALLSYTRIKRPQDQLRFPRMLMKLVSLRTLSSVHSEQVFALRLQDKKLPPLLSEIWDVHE
It is filed as functional, cell-based.

The target of the next assay is T2, Protein skinhead-1 (Caenorhabditis elegans, UniProt P34707).
T2 sequence (P34707 whole entry): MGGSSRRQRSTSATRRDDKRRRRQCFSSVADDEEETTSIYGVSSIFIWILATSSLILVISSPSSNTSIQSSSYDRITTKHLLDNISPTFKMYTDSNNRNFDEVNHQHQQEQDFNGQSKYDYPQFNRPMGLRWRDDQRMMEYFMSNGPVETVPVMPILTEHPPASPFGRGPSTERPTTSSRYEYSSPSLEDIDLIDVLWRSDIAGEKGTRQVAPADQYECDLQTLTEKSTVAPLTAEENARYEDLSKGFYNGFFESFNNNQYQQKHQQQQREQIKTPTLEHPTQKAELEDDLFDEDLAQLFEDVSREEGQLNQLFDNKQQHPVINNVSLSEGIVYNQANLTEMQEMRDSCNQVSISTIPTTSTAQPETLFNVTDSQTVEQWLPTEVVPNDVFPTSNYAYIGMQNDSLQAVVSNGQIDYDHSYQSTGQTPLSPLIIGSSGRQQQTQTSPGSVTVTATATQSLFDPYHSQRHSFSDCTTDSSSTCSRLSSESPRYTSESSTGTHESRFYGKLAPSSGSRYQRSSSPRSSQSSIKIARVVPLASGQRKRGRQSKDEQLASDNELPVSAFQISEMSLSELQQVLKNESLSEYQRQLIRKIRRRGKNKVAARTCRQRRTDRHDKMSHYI
It is filed as functional.

The target in the next assay is T3, Caspase-3 (Homo sapiens, UniProt P42574).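 Further: Dose-response selectivity test against caspase-3 for candidate inhibitors of sentrin-specific proteases (SENPs).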
T3 sequence (P42574 whole entry): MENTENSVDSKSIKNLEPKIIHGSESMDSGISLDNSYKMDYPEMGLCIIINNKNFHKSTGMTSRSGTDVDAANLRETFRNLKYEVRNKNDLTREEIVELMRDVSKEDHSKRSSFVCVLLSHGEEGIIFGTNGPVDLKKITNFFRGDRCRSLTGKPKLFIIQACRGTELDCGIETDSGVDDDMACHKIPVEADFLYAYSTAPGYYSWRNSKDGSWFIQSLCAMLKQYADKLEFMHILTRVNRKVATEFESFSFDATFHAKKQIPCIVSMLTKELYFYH
It is filed as functional.

The target in assay [12] is T4, Sentrin-specific protease 7 (Homo sapiens, UniProt Q9BQF6).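 Further: Luminescence-based dose-response confirmation of ultra-high-throughput screening hits, measuring inhibition of SENP7.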
T4 sequence (Q9BQF6 whole entry): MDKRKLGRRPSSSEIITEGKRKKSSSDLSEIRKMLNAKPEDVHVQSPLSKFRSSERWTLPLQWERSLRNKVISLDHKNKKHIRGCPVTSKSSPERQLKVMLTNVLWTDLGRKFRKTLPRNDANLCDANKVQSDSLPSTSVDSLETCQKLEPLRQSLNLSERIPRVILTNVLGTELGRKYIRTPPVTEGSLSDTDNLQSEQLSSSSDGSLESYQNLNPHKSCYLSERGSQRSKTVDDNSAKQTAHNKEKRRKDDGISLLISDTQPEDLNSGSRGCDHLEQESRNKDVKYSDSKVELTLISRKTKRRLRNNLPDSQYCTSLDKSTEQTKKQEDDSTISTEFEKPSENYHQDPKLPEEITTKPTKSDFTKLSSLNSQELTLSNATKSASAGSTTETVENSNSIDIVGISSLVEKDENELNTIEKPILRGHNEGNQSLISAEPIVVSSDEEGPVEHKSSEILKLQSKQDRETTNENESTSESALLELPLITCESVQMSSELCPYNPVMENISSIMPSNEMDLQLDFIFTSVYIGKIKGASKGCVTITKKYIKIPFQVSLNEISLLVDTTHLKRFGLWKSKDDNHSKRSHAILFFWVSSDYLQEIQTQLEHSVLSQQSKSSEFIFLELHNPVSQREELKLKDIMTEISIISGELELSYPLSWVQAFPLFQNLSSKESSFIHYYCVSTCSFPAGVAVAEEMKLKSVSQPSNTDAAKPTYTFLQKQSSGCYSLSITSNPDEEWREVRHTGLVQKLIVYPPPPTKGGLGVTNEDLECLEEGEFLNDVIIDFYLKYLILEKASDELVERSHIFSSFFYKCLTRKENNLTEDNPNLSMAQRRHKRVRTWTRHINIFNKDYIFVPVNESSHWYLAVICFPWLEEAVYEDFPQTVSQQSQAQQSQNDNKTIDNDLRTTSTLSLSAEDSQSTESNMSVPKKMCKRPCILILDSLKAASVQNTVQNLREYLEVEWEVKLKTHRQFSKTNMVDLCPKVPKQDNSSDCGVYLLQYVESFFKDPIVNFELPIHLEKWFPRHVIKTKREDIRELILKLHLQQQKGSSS
The assay is classed as functional.

Assay [13] concerns the target T5, Sentrin-specific protease 8 (Homo sapiens, UniProt Q96LD8).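 Further: luminescence read-out of SENP8 inhibition, dose-response confirmation following an ultra-high-throughput screen.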
T5 sequence (Q96LD8 whole entry): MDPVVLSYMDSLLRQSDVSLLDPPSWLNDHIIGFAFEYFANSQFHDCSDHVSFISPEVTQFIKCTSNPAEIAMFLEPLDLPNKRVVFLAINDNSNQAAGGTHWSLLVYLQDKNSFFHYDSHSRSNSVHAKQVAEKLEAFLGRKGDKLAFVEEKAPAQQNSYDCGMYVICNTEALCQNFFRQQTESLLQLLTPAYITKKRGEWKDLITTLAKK
The assay is classed as functional.

Assay [14] concerns the target T6, Sentrin-specific protease 6 (Homo sapiens, UniProt Q9GZR1).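 Further: Luminescence-based dose-response confirmatory assay of SENP6 inhibition, following up an ultra-high-throughput screen.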
T6 sequence (Q9GZR1 whole entry): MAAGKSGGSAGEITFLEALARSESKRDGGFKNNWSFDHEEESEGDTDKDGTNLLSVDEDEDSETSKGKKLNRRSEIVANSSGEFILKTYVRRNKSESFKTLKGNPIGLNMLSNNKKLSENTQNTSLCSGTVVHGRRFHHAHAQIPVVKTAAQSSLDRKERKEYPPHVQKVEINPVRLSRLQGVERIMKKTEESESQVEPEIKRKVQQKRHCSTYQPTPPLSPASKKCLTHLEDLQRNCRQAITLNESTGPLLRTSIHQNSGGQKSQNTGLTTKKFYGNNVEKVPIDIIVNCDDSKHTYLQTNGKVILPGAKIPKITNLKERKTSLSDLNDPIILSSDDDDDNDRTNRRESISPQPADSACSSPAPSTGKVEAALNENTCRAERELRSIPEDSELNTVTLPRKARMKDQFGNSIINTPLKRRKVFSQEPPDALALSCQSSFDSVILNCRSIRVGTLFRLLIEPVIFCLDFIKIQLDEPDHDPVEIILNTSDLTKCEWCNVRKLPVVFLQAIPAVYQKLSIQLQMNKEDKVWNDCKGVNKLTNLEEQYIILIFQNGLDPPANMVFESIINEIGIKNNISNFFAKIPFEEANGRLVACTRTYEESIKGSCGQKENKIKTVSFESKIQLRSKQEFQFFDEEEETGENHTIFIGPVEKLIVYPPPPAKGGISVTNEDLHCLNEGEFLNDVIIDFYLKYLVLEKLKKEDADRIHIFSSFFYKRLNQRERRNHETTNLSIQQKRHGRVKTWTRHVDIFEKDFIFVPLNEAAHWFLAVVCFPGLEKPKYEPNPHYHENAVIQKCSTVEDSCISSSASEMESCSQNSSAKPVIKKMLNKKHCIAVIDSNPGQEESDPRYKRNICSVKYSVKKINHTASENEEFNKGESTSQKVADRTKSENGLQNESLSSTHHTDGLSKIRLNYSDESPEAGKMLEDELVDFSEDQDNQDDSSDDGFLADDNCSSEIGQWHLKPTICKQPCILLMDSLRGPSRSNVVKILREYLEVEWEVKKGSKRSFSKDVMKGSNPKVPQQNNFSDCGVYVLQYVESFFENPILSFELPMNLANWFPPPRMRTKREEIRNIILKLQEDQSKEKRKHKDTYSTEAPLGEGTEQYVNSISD
It is filed as functional.

Assay [15] can be described thus: toxicity to human HepG2 hepatoma cells – cell-based, plate reader, dry powder samples, cytotoxicity control, dose response (AID 1159569).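 Further: inhibitor potency with signal falling toward the positive control level.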 The assay is classed as functional.
Assay [16] can be described thus: growth inhibition of PfATP4-mutant resistant parasites – NITD609-resistant line, SYBR Green, dry powder, dose response (AID 1159571).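 Further: parasites synchronized at ring stage by sorbitol before testing.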 It is filed as functional, cell-based.
Assay [17] in a line: Dd2 malaria parasite growth inhibition potency – SYBR Green, dry powder samples, dose response (AID 1159566).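 Further: potency for growth inhibition with lower SYBR green DNA signal.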 The assay is classed as functional, cell-based.
Assay [18] can be described thus: growth inhibition of yeast DHODH-expressing 3D7 parasites – SYBR Green, dry powder samples, dose response (AID 1159570).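 Further: parasite growth measured after 72 hours of compound exposure.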 The assay is classed as functional, cell-based.

The source made the active and inactive calls. Some results are limits rather than exact numbers.

Sequence of Kallikrein-7 (P49862 whole entry): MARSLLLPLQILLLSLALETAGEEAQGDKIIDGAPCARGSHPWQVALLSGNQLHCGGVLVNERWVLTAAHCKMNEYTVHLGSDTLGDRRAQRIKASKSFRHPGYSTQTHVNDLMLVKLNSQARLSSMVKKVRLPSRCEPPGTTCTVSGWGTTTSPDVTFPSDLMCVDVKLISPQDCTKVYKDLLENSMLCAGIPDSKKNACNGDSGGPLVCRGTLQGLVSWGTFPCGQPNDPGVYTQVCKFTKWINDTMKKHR
Sequence of Paired box protein Pax-8 (Q06710 whole entry, the tested form may be a part): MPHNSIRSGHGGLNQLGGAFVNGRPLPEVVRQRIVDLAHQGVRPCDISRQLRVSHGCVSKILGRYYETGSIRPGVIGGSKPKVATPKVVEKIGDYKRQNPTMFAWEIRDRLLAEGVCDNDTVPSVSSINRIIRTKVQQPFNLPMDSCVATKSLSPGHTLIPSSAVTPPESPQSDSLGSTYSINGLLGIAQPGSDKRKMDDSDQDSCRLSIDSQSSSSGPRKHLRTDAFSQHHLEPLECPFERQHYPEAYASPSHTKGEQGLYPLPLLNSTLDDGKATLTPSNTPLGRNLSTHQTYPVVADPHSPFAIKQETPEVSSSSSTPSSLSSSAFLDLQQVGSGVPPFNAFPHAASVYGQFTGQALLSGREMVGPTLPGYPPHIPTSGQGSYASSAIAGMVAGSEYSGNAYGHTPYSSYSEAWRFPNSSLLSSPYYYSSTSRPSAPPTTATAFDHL

For `CNS(=O)(=O)Cc1ccc2[nH]cc(CCN(C)C)c2c1`, the IC50 is > 20 µM (inactive) in [1]; > 20 µM (inactive) in [2]; > 20 µM (inactive) in assay [3]; > 20 µM (inactive) in assay [4]; > 20 µM (inactive) in assay [5]; > 6.67 µM (inactive) in assay [6]. The IC50 in assay [7] was > 20 µM (inactive).
With `CCOC(=O)CC(=O)CSc1nc(C)cc(-c2cccnc2)c1C#N`, the concentration giving a half-maximal response (EC50) at Kallikrein-7 was 8.07 µM (active).
As to `CC(C)CC#Cc1ccc([C@@H]2[C@@H](CO)N3CCCCN(S(=O)(=O)Cc4ccccc4)C[C@@H]23)cc1`, the figures for the AC50 in [8] and in assay [9] were 5.76 µM (active) and > 39 µM (inactive), respectively.
Consider `C[C@H](CO)N1C[C@H](C)[C@@H](CN(C)Cc2ccc(Cl)c(Cl)c2)OCCCC[C@H](C)Oc2ccc(NS(=O)(=O)c3ccccc3)cc2C1=O`, for which the AC50 in assay [10] is < 260 nM (active); on Paired box protein Pax-8 it was 17.5 µM (active).
Take `COc1ccc2c3c([nH]c2c1)[C@H](CO)N(C(=O)C1CCCC1)CC31CCN(Cc2cccc(F)c2)CC1`: the AC50 in assay [8] was 3.49 µM (active); in [9], 9.75 µM (active).
Regarding `CCOc1ccc(-c2cc(C(=O)N3CCN(C)CC3)c3ccccc3n2)cc1`, on Kallikrein-7, the EC50 was > 69.5 µM (inactive).
On to `COc1cccc(-c2nc(-c3ccccc3)no2)c1`, for which the EC50 (in “cells”; in assay [11]) was > 67.6 µM (inactive) throughout.
In the case of `CC1=NN(C(N)=S)C(=O)C1N=Nc1ccc(C)cc1C` (stereo not drawn), the EC50 (in “cells”; in assay [11]) was > 67.5 µM (inactive) each time.
For the compound `Cc1ccccc1-c1nc(-c2ccc(Br)o2)no1`, the half-maximal inhibitory concentration (IC50) was 39.7 µM (active) on Protein skinhead-1; 17 µM (active) at Caspase-3; 4.23 µM (active) in assay [12]; 35.8 µM (active) in [13]; 23.5 µM (active) in assay [14]. For the same compound, the EC50 (in the assay “cells”; in [11]) was > 67.6 µM (inactive) each time.
Regarding `COc1cccc(NC(=O)N(C)C[C@@H]2Oc3cc(C#Cc4ccccc4)ccc3S(=O)(=O)N([C@H](C)CO)C[C@@H]2C)c1`, the AC50 in assay [15] is > 100 µM (inactive); in [8], 1.19 µM (active); in assay [16], 740 nM (active); in assay [17] it was 539 nM (active); in [18] it was 975 nM (active).
`Cc1cc(C)n2cc(CSCc3ccccc3)nc2n1`: the EC50 at Kallikrein-7 was 49.5 µM (inactive).
`COc1ccc2c3c(n(C)c2c1)[C@H](CO)NCC31CCN(Cc2ccc(-c3ccccn3)cc2)CC1`: the concentration at half-maximal activity (AC50) is 20 µM (active) in assay [15]; 0.322 µM (active) in assay [8]; 222 nM (active) in assay [16]; 20.3 µM (active) in assay [9]; 135 nM (active) in assay [17]; 265 nM (active) in assay [18].
